Values of other authors, collected in patent US5969017A, “Methods of treating or preventing cardiac arrhythmia” (Merck & Co., Inc., priority 1997, dated 1999).

Tests used:
[1] = test system: IKr; details: background; cited from earlier work
[2] = test system: K+ currents; details: 0.4 mM as printed; cited from earlier work
[3] = test system: L-type Ca2+ channels; details: Kass 1982; cited from earlier work
[4] = target: T1, IKs (Cavia porcellus, UniProt O70344); details: Balser et al., guinea pig ventricular myocytes; cited from earlier work
T1 construct: Guinea pig ventricular myocytes were isolated; endogenous in cells; host or cells: isolated guinea pig ventricular myocytes

[5] = test system: INa; details: background; cited from earlier work
[6] = test system: ICa; details: background; cited from earlier work

T1 sequence (O70344 whole entry): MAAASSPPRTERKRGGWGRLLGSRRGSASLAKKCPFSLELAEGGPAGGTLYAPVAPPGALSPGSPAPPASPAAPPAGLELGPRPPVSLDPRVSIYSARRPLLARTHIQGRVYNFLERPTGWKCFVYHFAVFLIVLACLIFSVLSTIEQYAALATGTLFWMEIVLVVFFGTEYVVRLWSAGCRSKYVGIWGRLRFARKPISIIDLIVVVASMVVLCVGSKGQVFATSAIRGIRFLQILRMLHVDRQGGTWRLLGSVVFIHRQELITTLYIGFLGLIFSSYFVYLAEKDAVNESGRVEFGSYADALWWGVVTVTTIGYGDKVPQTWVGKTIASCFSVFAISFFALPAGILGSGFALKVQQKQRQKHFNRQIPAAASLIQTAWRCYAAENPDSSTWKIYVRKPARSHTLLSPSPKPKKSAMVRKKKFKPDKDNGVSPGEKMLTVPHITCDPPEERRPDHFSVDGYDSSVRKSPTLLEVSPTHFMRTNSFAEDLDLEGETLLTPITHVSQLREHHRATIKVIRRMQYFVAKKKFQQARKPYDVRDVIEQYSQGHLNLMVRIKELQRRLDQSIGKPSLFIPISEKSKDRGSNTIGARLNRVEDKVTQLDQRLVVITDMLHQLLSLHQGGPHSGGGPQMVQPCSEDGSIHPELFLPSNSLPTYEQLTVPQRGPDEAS
T1 sequence (Q60409 whole entry partner): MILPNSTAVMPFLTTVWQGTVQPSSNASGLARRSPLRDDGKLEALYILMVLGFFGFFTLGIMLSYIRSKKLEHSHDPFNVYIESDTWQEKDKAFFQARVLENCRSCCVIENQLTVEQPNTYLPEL

For `CS(=O)(=O)Nc1ccc2c(c1)C(O)CC1(CCN(C3CCc4cc(C#N)ccc4C3)CC1)O2` (single isomer, unassigned) [MK-499, methanesulfonamide--N--[1'-6-cyano-1,2,3,4-tetrahydro-2-naphthalenyl)-3,4-dihydro-4-hydroxyspiro[2H-1-benzopyran-2,4'-piperidin]-6yl], (+)-, monochloride], the “block of IKr (in words)” value [1] is given as “predominantly, if not exclusively, block IKr”.
In the case of `COC(=O)C1=C(C)NC(C)=C(C(=O)OCC(C)C)C1c1ccccc1[N+](=O)[O-]` (centres unmarked) [Nisoldipine], the “effect on K+ currents (in words)” value [2] is given as “no effect on K^+ currents” and the “block of L-type Ca2+ channels (in words)” value [3] is given as “relatively specific blocker”.
For `CCCCc1oc2ccccc2c1C(=O)c1cc(I)c(OCCN(CC)CC)c(I)c1` [amiodarone], the “block of IKs (in words)” value [4] is given as “blocker of IKs”, the “block of INa (in words)” value [5] is given as “blocks INa” and the “block of ICa (in words)” value [6] is given as “blocks INa and ICa”.
For `CC(C)NC[C@@H](O)c1ccc(NS(C)(=O)=O)cc1` [d-sotalol], the “block of IKr (in words)” value [1] is listed as “predominantly, if not exclusively, block IKr”.
In the case of `CN(CCOc1ccc(NS(C)(=O)=O)cc1)CCc1ccc(NS(C)(=O)=O)cc1` [dofetilide], the “block of IKr (in words)” value [1] is given as “predominantly, if not exclusively, block IKr”.
